The record followed here is ChEMBL document CHEMBL3091451, “Function-regulating pharmacophores in a sulfonamide class of glucocorticoid receptor agonists” (Bioorg Med Chem Lett, 2013).

What is called pIC50 is −log10 of the IC50, conventionally taken in molar units.

The target in assay [1] is T1, Glucocorticoid receptor (Homo sapiens, UniProt P04150).
T1 sequence (P04150 whole entry): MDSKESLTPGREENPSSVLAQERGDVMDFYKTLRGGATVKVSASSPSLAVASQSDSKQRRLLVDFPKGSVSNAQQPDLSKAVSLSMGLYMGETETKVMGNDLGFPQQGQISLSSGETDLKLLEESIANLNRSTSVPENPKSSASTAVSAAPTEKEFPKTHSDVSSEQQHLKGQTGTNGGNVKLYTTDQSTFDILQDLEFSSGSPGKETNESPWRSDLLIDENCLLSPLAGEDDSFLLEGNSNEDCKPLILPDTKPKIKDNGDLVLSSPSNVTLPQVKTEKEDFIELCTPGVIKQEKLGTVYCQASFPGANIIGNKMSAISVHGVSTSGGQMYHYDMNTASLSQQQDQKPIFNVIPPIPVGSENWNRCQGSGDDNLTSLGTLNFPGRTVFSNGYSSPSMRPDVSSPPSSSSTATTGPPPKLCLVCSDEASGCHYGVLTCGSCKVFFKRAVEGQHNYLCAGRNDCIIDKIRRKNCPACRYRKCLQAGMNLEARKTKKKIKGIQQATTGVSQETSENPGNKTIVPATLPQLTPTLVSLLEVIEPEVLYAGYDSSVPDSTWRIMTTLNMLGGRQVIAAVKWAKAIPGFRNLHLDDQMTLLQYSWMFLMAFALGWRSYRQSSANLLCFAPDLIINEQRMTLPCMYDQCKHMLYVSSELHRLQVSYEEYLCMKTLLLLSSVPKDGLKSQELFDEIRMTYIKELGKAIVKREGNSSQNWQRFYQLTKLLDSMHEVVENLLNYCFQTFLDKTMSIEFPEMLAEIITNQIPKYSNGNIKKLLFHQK
Nature of the assay: Displacement of TAMRA-labeled dexamethasone from glucocorticoid receptor (unknown origin) by fluorescence polarization competitive binding assay. (In fluorescence polarisation assays a small probe gives low polarisation when free and higher when bound to something large.)

The next assay concerns the target T2, Progesterone receptor (Homo sapiens, UniProt P06401).
T2 sequence (P06401 whole entry): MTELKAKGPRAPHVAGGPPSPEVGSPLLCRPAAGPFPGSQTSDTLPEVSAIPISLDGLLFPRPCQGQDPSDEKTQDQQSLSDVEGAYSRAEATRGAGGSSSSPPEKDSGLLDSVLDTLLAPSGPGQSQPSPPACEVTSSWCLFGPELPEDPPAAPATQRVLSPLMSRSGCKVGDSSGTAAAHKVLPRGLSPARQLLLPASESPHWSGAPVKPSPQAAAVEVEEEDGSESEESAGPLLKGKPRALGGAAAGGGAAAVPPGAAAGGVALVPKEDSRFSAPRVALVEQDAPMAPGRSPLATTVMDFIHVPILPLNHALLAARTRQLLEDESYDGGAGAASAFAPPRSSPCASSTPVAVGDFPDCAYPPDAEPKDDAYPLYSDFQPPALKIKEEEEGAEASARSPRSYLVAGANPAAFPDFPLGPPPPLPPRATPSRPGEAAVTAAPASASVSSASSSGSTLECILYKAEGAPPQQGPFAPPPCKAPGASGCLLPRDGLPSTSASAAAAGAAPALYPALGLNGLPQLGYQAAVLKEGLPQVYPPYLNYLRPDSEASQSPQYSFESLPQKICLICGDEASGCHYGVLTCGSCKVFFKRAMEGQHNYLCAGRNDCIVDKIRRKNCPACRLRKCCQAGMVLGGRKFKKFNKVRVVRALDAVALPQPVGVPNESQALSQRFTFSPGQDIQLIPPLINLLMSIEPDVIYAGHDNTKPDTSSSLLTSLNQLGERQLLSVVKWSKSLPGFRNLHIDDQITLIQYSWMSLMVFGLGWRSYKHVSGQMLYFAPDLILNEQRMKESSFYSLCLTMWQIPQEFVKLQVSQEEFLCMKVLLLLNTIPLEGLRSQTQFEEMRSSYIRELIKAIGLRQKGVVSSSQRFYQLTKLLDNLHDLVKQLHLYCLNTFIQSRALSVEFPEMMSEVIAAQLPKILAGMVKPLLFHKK
In words: Displacement of TAMRA-labeled mifepristone from progesterone receptor (unknown origin) by fluorescence polarization competitive binding assay.

Assay [2] deals with T3, Mineralocorticoid receptor (Homo sapiens, UniProt P08235).
T3 sequence (P08235 whole entry): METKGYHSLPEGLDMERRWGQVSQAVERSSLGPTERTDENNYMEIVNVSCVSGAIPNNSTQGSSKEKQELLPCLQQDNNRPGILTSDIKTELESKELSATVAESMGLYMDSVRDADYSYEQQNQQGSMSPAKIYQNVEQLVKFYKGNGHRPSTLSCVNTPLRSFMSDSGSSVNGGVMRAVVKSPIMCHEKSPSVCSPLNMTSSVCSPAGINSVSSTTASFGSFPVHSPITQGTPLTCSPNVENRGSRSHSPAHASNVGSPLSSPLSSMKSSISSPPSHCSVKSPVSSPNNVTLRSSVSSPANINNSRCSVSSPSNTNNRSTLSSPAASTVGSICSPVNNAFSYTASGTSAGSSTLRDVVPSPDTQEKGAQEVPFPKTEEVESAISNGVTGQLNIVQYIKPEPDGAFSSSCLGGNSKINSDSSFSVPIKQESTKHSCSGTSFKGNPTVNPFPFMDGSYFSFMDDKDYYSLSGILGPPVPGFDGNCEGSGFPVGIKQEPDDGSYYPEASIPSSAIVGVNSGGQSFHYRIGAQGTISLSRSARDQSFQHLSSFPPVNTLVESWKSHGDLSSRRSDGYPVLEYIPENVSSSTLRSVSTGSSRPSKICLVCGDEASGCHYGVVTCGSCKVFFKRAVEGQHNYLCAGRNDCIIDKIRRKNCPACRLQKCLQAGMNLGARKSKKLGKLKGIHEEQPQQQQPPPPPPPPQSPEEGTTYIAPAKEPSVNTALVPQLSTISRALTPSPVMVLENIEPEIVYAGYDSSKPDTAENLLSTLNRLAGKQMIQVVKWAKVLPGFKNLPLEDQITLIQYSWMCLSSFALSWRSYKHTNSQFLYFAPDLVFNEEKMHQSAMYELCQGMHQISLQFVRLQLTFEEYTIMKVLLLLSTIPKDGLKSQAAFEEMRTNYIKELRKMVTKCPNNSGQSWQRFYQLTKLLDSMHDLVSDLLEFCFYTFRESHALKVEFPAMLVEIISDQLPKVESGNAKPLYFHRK
In words: Binding affinity to mineralocorticoid receptor (unknown origin) by fluorescence polarization competitive binding assay.

Assay [3] concerns the target T1, Glucocorticoid receptor. In words: Agonist activity at glucocorticoid receptor in HFF assessed as inhibition of IL-1-induced IL-6 production after 24 hrs.
For a further assay, the species on record is Homo sapiens. Nature of the assay: Selectivity ratio of IC50 for mineralocorticoid receptor (unknown origin) to IC50 for glucocorticoid receptor (unknown origin).

pIC50: −log10 of the molar value.

As to `CC(C)(Cc1c[nH]c2ccccc12)NS(=O)(=O)c1c(N)cc(Cl)cc1Cl`, the pIC50 was 7.82 on Glucocorticoid receptor [1], 5.28 on Progesterone receptor, 6.33 in assay [2] and < 5.70 at Glucocorticoid receptor [3].
As to `Cc1cc(C)c(S(=O)(=O)NC(Cc2c[nH]c3cccc(C)c23)C(F)(F)F)c(C)c1` (configuration not stated), the Ratio IC50 in the assay listed under Homo sapiens stood at 1. Besides, the pIC50 on Glucocorticoid receptor [1] was 7.74; on Progesterone receptor it was < 5.70; in assay [2] it was 7.10; at Glucocorticoid receptor [3], < 5.70.
For `Cc1cc(C)c(S(=O)(=O)NC(Cn2ccc3ncccc32)C(F)(F)F)c(C)c1` (configuration not stated), the pIC50 was 6.47 on Glucocorticoid receptor [1], < 5.00 on Progesterone receptor, 6.66 in assay [2] and < 5.70 at Glucocorticoid receptor [3].
On the same counts, the results for `Cc1cc(C)c(S(=O)(=O)NC(CNc2ccccc2)C(F)(F)F)c(C)c1` (configuration not stated) are 7.02, 5.49, 6.59 and < 5.00.
On to `Cc1cc(C)c(S(=O)(=O)NC(Cc2c[nH]c3c(C)cccc23)C(F)(F)F)c(C)c1` (configuration not stated), for which, in the assay listed under Homo sapiens, the Ratio IC50 came out at 1. Moreover, the pIC50 is 7.70 at Glucocorticoid receptor [1], 5.23 on Progesterone receptor, 7.05 in assay [2] and < 5.00 on Glucocorticoid receptor [3].
On to `Cc1cc(C)c(S(=O)(=O)NC(Cc2c[nH]c3cc(C)ccc23)C(F)(F)F)c(C)c1` (configuration not stated), for which the Ratio IC50 in the assay filed under Homo sapiens came out at 1. Besides, the pIC50 at Glucocorticoid receptor [1] is 7.43; on Progesterone receptor, < 5.70; in assay [2] it was 6.85; on Glucocorticoid receptor [3], < 5.70.
On to `Cc1cc(C)c(S(=O)(=O)NC(Cc2c[nH]c3ccc(C#N)cc23)C(F)(F)F)c(C)c1` (configuration not stated), for which, in the assay listed under Homo sapiens, the Ratio IC50 was determined as 1. Moreover, the pIC50 at Glucocorticoid receptor [1] was 6.49; at Progesterone receptor, < 5.00; in assay [2] it was 6.68; at Glucocorticoid receptor [3], < 5.00.
For the compound `Cc1cc(C)c(S(=O)(=O)NC(Cn2ccc3ccccc32)C(F)(F)F)c(C)c1` (configuration not stated), the pIC50 is 7.60 on Glucocorticoid receptor [1], 5.62 at Progesterone receptor, 6.92 in assay [2] and < 5.00 on Glucocorticoid receptor [3].
On to `O=S(=O)(NC(Cc1c[nH]c2ccccc12)C(F)(F)F)c1c(Cl)cc(Cl)cc1Cl` (configuration not stated), for which the pIC50 at Glucocorticoid receptor [1] was 7.46; on Progesterone receptor, 5.46; in assay [2], 7.10; on Glucocorticoid receptor [3], < 5.70.
Regarding `Cc1cc(C)c(S(=O)(=O)NC(Cc2c[nH]c3c(C#N)cc(C)cc23)C(F)(F)F)c(C)c1` (configuration not stated), the Ratio IC50 in the assay listed under Homo sapiens was found to be 22. Further, the pIC50 at Glucocorticoid receptor [1] is 8.30; on Progesterone receptor, 6.12; in assay [2], 6.96; on Glucocorticoid receptor [3], 7.82.
Consider `Cc1cc(C)c(S(=O)(=O)NC(Cn2ccc3c(C#N)cccc32)C(F)(F)F)c(C)c1` (configuration not stated), for which the pIC50 was 7.22 at Glucocorticoid receptor [1], 6.15 at Progesterone receptor, 7.00 in assay [2] and < 5.00 at Glucocorticoid receptor [3].
For `Cc1cc(C)c(S(=O)(=O)NC(Cc2c[nH]c3ccc(C)cc23)C(F)(F)F)c(C)c1` (configuration not stated), the Ratio IC50 in the assay filed under Homo sapiens is 1. In addition, the pIC50 was 8.00 at Glucocorticoid receptor [1], 5.22 at Progesterone receptor, 7.05 in assay [2] and 6.68 at Glucocorticoid receptor [3].
On to `CC(Cc1c[nH]c2ccccc12)NS(=O)(=O)c1c(Cl)cc(Cl)cc1Cl` (configuration not stated), for which, on Glucocorticoid receptor [3], the pIC50 is < 5.70.
As for `Cc1cc(C)c(S(=O)(=O)NC(Cn2cc(C#N)c3ccccc32)C(F)(F)F)c(C)c1` (configuration not stated), the pIC50 at Glucocorticoid receptor [1] was 7.82; at Progesterone receptor, 6.28; in assay [2], 7.19; at Glucocorticoid receptor [3], < 5.70.
Turning to `Nc1cc(Cl)cc(Cl)c1S(=O)(=O)NC(Cc1c[nH]c2ccccc12)C(F)(F)F` (configuration not stated), the pIC50 is 8.00 at Glucocorticoid receptor [1], < 5.70 at Progesterone receptor, 6.57 in assay [2] and 7.25 at Glucocorticoid receptor [3].
For the compound `Cc1cc(C)c(S(=O)(=O)NC(Cc2c[nH]c3c(C#N)cccc23)C(F)(F)F)c(C)c1` (configuration not stated), in the assay filed under Homo sapiens, the Ratio IC50 stood at 1. The pIC50 is 8.00 at Glucocorticoid receptor [1], 6.27 on Progesterone receptor, 7.15 in assay [2] and 7.35 on Glucocorticoid receptor [3].
For the compound `Cc1cc(C)c(S(=O)(=O)NC(COc2ccccc2)C(F)(F)F)c(C)c1` (configuration not stated), the pIC50 was 6.68 on Glucocorticoid receptor [1], 5.19 on Progesterone receptor, 6.47 in assay [2] and < 5.00 on Glucocorticoid receptor [3].
In the case of `Cc1cc(C)c(S(=O)(=O)NC(Cc2c[nH]c3cc(C#N)ccc23)C(F)(F)F)c(C)c1` (configuration not stated), the Ratio IC50 in the assay listed under Homo sapiens came out at 1. Moreover, the pIC50 is 6.55 at Glucocorticoid receptor [1], 5.70 at Progesterone receptor, 6.55 in assay [2] and < 5.00 on Glucocorticoid receptor [3].
Consider `Cc1cc(C)c(S(=O)(=O)NC(CSc2ccccc2)C(F)(F)F)c(C)c1` (configuration not stated), for which the pIC50 at Glucocorticoid receptor [1] is 7.70; on Progesterone receptor it was 5.70; in assay [2], 6.55; at Glucocorticoid receptor [3] it was < 5.00.
Regarding `Cc1cc(C)c(S(=O)(=O)NC(Cc2c[nH]c3cccc(C#N)c23)C(F)(F)F)c(C)c1` (configuration not stated), the negative logarithm of the IC50 (pIC50) on Glucocorticoid receptor [1] was < 5.00; at Progesterone receptor, < 5.00; in assay [2] it was 6.77.
As to `Cc1cc(C)c(S(=O)(=O)N[C@@H](C)Cc2c[nH]c3ccccc23)c(C)c1`, the pIC50 on Glucocorticoid receptor [1] was 7.40; at Progesterone receptor, 5.85; in assay [2], 6.54; at Glucocorticoid receptor [3], < 5.70.
Regarding `Cc1cc(C)c(S(=O)(=O)NC(Cc2c[nH]c3ccccc23)C(F)(F)F)c(C)c1` (configuration not stated), the pIC50 at Glucocorticoid receptor [1] was 7.82; on Progesterone receptor, 5.44; in assay [2], 7.10; at Glucocorticoid receptor [3], < 5.70.
For the compound `CC(Cc1c[nH]c2ccccc12)NS(=O)(=O)c1c(N)cc(Cl)cc1Cl` (configuration not stated), the Ratio IC50 in the assay listed under Homo sapiens came to 102. In addition, the pIC50 at Glucocorticoid receptor [1] is 8.30; on Progesterone receptor it was < 5.70; in assay [2] it was 6.29; on Glucocorticoid receptor [3], 6.92.
